# Measured values reported in the kinase profiling compilation of Christmann-Franck et al. (2016).
# Assays:
# CHEK2 (human) = CHEK2 (human) (UniProt O96017); assay: KINOMEscan competition binding; conditions: compound 10.0 µM
# PTK2 (human) = PTK2 (human) (UniProt Q05397); assay: KINOMEscan competition binding; conditions: compound 10.0 µM
# SGK110 (human) = SGK110 (human) (UniProt P0C264); assay: KINOMEscan competition binding; conditions: compound 10.0 µM
# PTK6 (human) = PTK6 (human) (UniProt Q13882); assay: KINOMEscan competition binding; conditions: compound 10.0 µM
# MKNK2 (human) = MKNK2 (human) (UniProt Q9HBH9); assay: KINOMEscan competition binding; conditions: compound 10.0 µM
# TNK1 (human) = TNK1 (human) (UniProt Q13470); assay: KINOMEscan competition binding; conditions: compound 10.0 µM
# [1] = tested on: ABL1 (human), P00519 [F317L]; assay: KINOMEscan competition binding; conditions: compound 10.0 µM
# Chain of ABL1 (human), P00519 [F317L] (P00519 whole entry F317L, looked up): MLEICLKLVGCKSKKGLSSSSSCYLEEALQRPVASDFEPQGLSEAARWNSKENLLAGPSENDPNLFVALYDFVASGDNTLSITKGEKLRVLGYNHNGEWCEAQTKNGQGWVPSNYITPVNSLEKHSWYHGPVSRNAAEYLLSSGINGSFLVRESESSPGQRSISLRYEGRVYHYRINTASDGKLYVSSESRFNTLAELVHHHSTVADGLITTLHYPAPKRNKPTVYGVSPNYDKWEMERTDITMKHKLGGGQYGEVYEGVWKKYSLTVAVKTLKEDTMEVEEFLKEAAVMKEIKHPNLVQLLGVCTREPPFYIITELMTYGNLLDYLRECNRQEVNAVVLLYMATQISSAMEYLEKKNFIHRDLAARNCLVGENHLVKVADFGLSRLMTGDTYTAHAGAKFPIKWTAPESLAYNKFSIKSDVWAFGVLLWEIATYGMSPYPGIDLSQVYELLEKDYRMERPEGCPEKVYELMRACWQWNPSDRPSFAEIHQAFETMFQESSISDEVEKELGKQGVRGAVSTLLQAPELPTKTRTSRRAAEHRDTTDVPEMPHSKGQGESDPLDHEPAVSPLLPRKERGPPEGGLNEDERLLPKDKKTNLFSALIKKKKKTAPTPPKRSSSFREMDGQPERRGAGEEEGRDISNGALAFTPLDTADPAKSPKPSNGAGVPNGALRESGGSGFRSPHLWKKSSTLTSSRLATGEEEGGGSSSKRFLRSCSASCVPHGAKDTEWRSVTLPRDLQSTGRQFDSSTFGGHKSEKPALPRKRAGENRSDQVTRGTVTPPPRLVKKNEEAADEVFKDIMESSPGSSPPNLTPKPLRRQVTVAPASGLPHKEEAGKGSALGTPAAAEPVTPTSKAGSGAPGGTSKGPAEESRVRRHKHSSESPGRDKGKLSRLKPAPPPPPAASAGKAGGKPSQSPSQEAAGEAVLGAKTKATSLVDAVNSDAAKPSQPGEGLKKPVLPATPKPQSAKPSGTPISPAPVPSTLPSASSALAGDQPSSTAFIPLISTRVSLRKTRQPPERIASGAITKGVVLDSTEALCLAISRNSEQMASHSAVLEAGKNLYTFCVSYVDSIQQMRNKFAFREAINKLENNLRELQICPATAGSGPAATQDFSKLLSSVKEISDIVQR
# PIK3CG (human) = PIK3CG (human) (UniProt P48736); assay: KINOMEscan competition binding; conditions: compound 10.0 µM
# ALK (human) = ALK (human) (UniProt Q9UM73); assay: KINOMEscan competition binding; conditions: compound 10.0 µM
# [2] = tested on: ABL1 (human), P00519 [F317I]; assay: KINOMEscan competition binding; conditions: compound 10.0 µM
# TTK (human) = TTK (human) (UniProt P33981); assay: KINOMEscan competition binding; conditions: compound 10.0 µM
# RPS6KA1 KD2 (human) = RPS6KA1 KD2 (human) (UniProt Q15418); assay: KINOMEscan competition binding; conditions: compound 10.0 µM
# CAMK2D (human) = CAMK2D (human) (UniProt Q13557); assay: KINOMEscan competition binding; conditions: compound 10.0 µM
# MYLK (human) = MYLK (human) (UniProt Q15746); assay: KINOMEscan competition binding; conditions: compound 10.0 µM
# TAOK1 (human) = TAOK1 (human) (UniProt Q7L7X3); assay: KINOMEscan competition binding; conditions: compound 10.0 µM
# Chain of TAOK1 (human) (Q7L7X3 whole entry, looked up): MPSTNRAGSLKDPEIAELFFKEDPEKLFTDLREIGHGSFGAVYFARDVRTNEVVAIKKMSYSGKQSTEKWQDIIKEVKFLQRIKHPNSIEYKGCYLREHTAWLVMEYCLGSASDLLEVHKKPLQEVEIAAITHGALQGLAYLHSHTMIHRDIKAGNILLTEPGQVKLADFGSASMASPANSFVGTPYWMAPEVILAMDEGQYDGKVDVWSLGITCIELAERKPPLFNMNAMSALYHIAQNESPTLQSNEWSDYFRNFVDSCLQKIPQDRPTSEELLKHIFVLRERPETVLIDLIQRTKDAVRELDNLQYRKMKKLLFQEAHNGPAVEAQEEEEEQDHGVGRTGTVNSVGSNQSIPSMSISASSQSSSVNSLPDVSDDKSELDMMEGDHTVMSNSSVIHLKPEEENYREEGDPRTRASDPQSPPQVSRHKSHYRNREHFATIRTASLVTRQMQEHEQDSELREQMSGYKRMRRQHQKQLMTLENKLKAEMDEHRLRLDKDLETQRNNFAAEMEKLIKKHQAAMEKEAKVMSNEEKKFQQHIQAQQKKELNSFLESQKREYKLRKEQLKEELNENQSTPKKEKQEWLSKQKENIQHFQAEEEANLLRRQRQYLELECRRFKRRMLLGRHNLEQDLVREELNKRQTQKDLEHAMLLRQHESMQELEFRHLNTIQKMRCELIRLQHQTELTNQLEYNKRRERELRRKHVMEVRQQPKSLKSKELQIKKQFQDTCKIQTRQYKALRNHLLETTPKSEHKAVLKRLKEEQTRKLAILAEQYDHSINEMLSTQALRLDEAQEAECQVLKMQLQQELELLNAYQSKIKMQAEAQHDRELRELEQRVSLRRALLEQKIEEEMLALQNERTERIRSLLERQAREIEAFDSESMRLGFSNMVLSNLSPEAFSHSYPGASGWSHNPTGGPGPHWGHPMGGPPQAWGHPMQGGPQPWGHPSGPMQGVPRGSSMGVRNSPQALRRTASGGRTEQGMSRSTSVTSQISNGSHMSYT
# ROS1 (human) = ROS1 (human) (UniProt P08922); assay: KINOMEscan competition binding; conditions: compound 10.0 µM
# RPS6KA2 KD2 (human) = RPS6KA2 KD2 (human) (UniProt Q15349); assay: KINOMEscan competition binding; conditions: compound 10.0 µM
# GAK (human) = GAK (human) (UniProt O14976); assay: KINOMEscan competition binding; conditions: compound 10.0 µM
# PRKD2 (human) = PRKD2 (human) (UniProt Q9BZL6); assay: KINOMEscan competition binding; conditions: compound 10.0 µM
# NUAK2 (human) = NUAK2 (human) (UniProt Q9H093); assay: KINOMEscan competition binding; conditions: compound 10.0 µM
# CAMK2G (human) = CAMK2G (human) (UniProt Q13555); assay: KINOMEscan competition binding; conditions: compound 10.0 µM
# FGFR4 (human) = FGFR4 (human) (UniProt P22455); assay: KINOMEscan competition binding; conditions: compound 10.0 µM
# CAMK2A (human) = CAMK2A (human) (UniProt Q9UQM7); assay: KINOMEscan competition binding; conditions: compound 10.0 µM
# FRK (human) = FRK (human) (UniProt P42685); assay: KINOMEscan competition binding; conditions: compound 10.0 µM
# PLK1 (human) = PLK1 (human) (UniProt P53350); assay: KINOMEscan competition binding; conditions: compound 10.0 µM
# MAPK7 (human) = MAPK7 (human) (UniProt Q13164); assay: KINOMEscan competition binding; conditions: compound 10.0 µM
# STK33 (human) = STK33 (human) (UniProt Q9BYT3); assay: KINOMEscan competition binding; conditions: compound 10.0 µM
# TAOK3 (human) = TAOK3 (human) (UniProt Q9H2K8); assay: KINOMEscan competition binding; conditions: compound 10.0 µM
# Chain of TAOK3 (human) (Q9H2K8 whole entry, looked up): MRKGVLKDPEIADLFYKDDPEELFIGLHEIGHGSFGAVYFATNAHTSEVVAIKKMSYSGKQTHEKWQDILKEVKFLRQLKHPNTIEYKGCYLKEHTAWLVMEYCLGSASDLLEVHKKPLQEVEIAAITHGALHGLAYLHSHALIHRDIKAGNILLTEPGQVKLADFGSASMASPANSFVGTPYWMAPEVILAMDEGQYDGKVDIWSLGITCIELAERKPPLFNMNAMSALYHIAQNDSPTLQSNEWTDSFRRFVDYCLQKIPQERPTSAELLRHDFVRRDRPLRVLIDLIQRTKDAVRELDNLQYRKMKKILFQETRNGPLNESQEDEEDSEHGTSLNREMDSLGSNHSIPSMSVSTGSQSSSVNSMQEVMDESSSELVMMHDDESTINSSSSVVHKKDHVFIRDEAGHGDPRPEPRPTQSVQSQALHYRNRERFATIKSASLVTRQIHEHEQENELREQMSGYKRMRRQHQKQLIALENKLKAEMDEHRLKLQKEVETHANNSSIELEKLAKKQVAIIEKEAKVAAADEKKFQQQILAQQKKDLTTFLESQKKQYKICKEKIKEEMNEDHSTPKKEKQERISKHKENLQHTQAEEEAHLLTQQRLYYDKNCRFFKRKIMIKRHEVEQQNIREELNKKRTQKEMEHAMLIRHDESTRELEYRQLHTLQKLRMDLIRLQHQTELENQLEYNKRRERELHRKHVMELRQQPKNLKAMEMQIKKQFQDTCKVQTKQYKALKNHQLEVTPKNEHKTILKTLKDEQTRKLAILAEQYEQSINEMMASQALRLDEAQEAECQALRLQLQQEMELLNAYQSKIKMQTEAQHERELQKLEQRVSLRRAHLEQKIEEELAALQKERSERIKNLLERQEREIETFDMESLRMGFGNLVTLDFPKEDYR
# CSF1R (human) = CSF1R (human) (UniProt P07333); assay: KINOMEscan competition binding; conditions: compound 10.0 µM
# PIK3CD (human) = PIK3CD (human) (UniProt O00329); assay: KINOMEscan competition binding; conditions: compound 10.0 µM
# DCLK1 (human) = DCLK1 (human) (UniProt O15075); assay: KINOMEscan competition binding; conditions: compound 10.0 µM
# ULK2 (human) = ULK2 (human) (UniProt Q8IYT8); assay: KINOMEscan competition binding; conditions: compound 10.0 µM
# PRKD1 (human) = PRKD1 (human) (UniProt Q15139); assay: KINOMEscan competition binding; conditions: compound 10.0 µM
# PHKG2 (human) = PHKG2 (human) (UniProt P15735); assay: KINOMEscan competition binding; conditions: compound 10.0 µM
# FER (human) = FER (human) (UniProt P16591); assay: KINOMEscan competition binding; conditions: compound 10.0 µM
# ULK1 (human) = ULK1 (human) (UniProt O75385); assay: KINOMEscan competition binding; conditions: compound 10.0 µM
# DCLK2 (human) = DCLK2 (human) (UniProt Q8N568); assay: KINOMEscan competition binding; conditions: compound 10.0 µM
# DCLK3 (human) = DCLK3 (human) (UniProt Q9C098); assay: KINOMEscan competition binding; conditions: compound 10.0 µM
# PLK4 (human) = PLK4 (human) (UniProt O00444); assay: KINOMEscan competition binding; conditions: compound 10.0 µM
# Chain of PLK4 (human) (O00444 whole entry, looked up): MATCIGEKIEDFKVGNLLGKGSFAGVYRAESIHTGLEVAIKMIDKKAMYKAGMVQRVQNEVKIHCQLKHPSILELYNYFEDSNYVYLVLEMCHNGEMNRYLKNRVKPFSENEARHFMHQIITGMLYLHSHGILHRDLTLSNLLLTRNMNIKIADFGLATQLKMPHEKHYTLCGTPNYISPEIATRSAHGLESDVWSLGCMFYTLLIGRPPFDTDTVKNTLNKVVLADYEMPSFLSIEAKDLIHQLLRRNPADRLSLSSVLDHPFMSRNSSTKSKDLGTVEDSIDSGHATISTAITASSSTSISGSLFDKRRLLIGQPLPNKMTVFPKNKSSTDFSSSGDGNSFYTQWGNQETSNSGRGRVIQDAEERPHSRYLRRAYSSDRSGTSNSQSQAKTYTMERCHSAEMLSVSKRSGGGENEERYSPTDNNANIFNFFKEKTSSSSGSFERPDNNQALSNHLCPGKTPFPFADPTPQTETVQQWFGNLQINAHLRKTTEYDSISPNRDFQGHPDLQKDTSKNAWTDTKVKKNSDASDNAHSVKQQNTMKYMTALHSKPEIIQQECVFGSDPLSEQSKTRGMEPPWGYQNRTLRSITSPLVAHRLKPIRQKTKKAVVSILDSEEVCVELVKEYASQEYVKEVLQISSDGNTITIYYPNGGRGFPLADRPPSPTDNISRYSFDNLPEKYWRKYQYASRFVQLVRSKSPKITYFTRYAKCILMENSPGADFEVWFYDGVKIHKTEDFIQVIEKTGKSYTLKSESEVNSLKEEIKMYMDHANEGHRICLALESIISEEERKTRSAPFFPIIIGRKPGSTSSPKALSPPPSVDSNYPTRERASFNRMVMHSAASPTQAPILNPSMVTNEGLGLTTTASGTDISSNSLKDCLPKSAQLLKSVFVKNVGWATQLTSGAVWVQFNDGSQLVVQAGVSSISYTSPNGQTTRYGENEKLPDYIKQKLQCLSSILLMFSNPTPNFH
# RPS6KA6 KD2 (human) = RPS6KA6 KD2 (human) (UniProt Q9UK32); assay: KINOMEscan competition binding; conditions: compound 10.0 µM
# CAMKK2 (human) = CAMKK2 (human) (UniProt Q96RR4); assay: KINOMEscan competition binding; conditions: compound 10.0 µM
# NUAK1 (human) = NUAK1 (human) (UniProt O60285); assay: KINOMEscan competition binding; conditions: compound 10.0 µM
# PRKD3 (human) = PRKD3 (human) (UniProt O94806); assay: KINOMEscan competition binding; conditions: compound 10.0 µM
# TNK2 (human) = TNK2 (human) (UniProt Q07912); assay: KINOMEscan competition binding; conditions: compound 10.0 µM
# IKBKB (human) = IKBKB (human) (UniProt O14920); assay: KINOMEscan competition binding; conditions: compound 10.0 µM
# DAPK2 (human) = DAPK2 (human) (UniProt Q9UIK4); assay: KINOMEscan competition binding; conditions: compound 10.0 µM
# CDK7 (human) = CDK7 (human) (UniProt P50613); assay: KINOMEscan competition binding; conditions: compound 10.0 µM
# HIPK1 (human) = HIPK1 (human) (UniProt Q86Z02); assay: KINOMEscan competition binding; conditions: compound 10.0 µM
# CLK2 (human) = CLK2 (human) (UniProt P49760); assay: KINOMEscan competition binding; conditions: compound 10.0 µM
# STK17B (human) = STK17B (human) (UniProt O94768); assay: KINOMEscan competition binding; conditions: compound 10.0 µM
# STK17A (human) = STK17A (human) (UniProt Q9UEE5); assay: KINOMEscan competition binding; conditions: compound 10.0 µM
# PIM2 (human) [3] = molecular target: PIM2 (human) (UniProt Q9P1W9); assay: KINOMEscan competition binding; conditions: compound 10.0 µM
# Chain of PIM2 (human) (Q9P1W9 whole entry, looked up): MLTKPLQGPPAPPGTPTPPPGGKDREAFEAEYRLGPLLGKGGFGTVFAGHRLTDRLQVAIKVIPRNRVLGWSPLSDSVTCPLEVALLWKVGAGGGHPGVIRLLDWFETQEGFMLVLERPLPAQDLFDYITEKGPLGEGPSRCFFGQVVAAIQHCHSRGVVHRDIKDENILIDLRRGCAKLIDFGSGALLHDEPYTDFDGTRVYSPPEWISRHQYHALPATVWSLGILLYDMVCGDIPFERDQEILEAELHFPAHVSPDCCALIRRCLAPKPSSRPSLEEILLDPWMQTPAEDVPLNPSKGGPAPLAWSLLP
# CLK1 (human) = CLK1 (human) (UniProt P49759); assay: KINOMEscan competition binding; conditions: compound 10.0 µM
# CLK4 (human) = CLK4 (human) (UniProt Q9HAZ1); assay: KINOMEscan competition binding; conditions: compound 10.0 µM
# CDK16 (human) = CDK16 (human) (UniProt Q00536); assay: KINOMEscan competition binding; conditions: compound 10.0 µM
# PIM1 (human) [4] = molecular target: PIM1 (human) (UniProt P11309); assay: KINOMEscan competition binding; conditions: compound 10.0 µM
# Chain of PIM1 (human) (P11309 whole entry, looked up): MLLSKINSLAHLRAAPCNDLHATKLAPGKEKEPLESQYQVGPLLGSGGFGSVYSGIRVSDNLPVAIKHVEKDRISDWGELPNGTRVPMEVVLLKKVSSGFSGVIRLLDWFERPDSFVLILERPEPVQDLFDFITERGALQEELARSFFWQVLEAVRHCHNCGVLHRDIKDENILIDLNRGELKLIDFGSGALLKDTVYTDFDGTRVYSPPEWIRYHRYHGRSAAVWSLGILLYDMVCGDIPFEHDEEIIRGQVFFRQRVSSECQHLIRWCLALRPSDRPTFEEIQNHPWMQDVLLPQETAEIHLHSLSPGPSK
# CHUK (human) = CHUK (human) (UniProt O15111); assay: KINOMEscan competition binding; conditions: compound 10.0 µM
# GSK3B (human) = GSK3B (human) (UniProt P49841); assay: KINOMEscan competition binding; conditions: compound 10.0 µM
# Chain of GSK3B (human) (P49841 whole entry, looked up): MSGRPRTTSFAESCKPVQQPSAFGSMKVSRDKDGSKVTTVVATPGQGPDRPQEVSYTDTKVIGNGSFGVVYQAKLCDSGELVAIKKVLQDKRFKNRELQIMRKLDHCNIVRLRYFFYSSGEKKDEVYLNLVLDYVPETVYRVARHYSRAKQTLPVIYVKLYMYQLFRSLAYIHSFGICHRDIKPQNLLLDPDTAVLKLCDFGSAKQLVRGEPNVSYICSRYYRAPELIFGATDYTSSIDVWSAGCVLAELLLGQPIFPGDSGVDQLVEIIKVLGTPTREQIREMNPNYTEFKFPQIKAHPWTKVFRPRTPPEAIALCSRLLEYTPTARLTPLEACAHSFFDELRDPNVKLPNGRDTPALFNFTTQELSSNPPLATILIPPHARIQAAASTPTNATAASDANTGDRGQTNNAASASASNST
# PIM3 (human) = PIM3 (human) (UniProt Q86V86); assay: KINOMEscan competition binding; conditions: compound 10.0 µM
# MAP2K3 (human) = MAP2K3 (human) (UniProt P46734); assay: KINOMEscan competition binding; conditions: compound 10.0 µM
# TGFBR2 (human) = TGFBR2 (human) (UniProt P37173); assay: KINOMEscan competition binding; conditions: compound 10.0 µM
# DYRK1B (human) = DYRK1B (human) (UniProt Q9Y463); assay: KINOMEscan competition binding; conditions: compound 10.0 µM
# MAPK15 (human) = MAPK15 (human) (UniProt Q8TD08); assay: KINOMEscan competition binding; conditions: compound 10.0 µM
# DAPK3 (human) = DAPK3 (human) (UniProt O43293); assay: KINOMEscan competition binding; conditions: compound 10.0 µM
# GSK3A (human) = GSK3A (human) (UniProt P49840); assay: KINOMEscan competition binding; conditions: compound 10.0 µM
# [5] = molecular target: TYK2 JH2 pseudokinase (human) (UniProt P29597); assay: KINOMEscan competition binding; conditions: compound 10.0 µM
# DAPK1 (human) = DAPK1 (human) (UniProt P53355); assay: KINOMEscan competition binding; conditions: compound 10.0 µM
# PIM2 (human) [6] = molecular target: PIM2 (human) (UniProt Q9P1W9); assay: SelectScreen, TR FRET
# PIM1 (human) [7] = molecular target: PIM1 (human) (UniProt P11309); assay: SelectScreen, TR FRET
structure (smiles),measurement,setting,value
COc1cc(N2CCN(C)CC2)ccc1Nc1ncc2c(n1)N(C)c1ccccc1C(=O)N2C,"kinase still bound, per cent of control",CHEK2 (human),30%
same,"kinase still bound, per cent of control",PTK2 (human),16%
same,"kinase still bound, per cent of control",SGK110 (human),30%
same,"kinase still bound, per cent of control",PTK6 (human),7.6%
same,"kinase still bound, per cent of control",MKNK2 (human),0%
same,"kinase still bound, per cent of control",TNK1 (human),0.4%
same,"kinase still bound, per cent of control",[1],17%
same,"kinase still bound, per cent of control",PIK3CG (human),31%
same,"kinase still bound, per cent of control",ALK (human),16%
same,"kinase still bound, per cent of control",[2],5%
same,"kinase still bound, per cent of control",TTK (human),26%
same,"kinase still bound, per cent of control",RPS6KA1 KD2 (human),18%
same,"kinase still bound, per cent of control",CAMK2D (human),23%
same,"kinase still bound, per cent of control",MYLK (human),13%
same,"kinase still bound, per cent of control",TAOK1 (human),4.8%
same,"kinase still bound, per cent of control",ROS1 (human),7.6%
same,"kinase still bound, per cent of control",RPS6KA2 KD2 (human),15%
same,"kinase still bound, per cent of control",GAK (human),9.8%
same,"kinase still bound, per cent of control",PRKD2 (human),0.55%
same,"kinase still bound, per cent of control",NUAK2 (human),14%
same,"kinase still bound, per cent of control",CAMK2G (human),31%
same,"kinase still bound, per cent of control",FGFR4 (human),5.6%
same,"kinase still bound, per cent of control",CAMK2A (human),32%
same,"kinase still bound, per cent of control",FRK (human),2.6%
same,"kinase still bound, per cent of control",PLK1 (human),9.8%
same,"kinase still bound, per cent of control",MAPK7 (human),0%
same,"kinase still bound, per cent of control",STK33 (human),8.8%
same,"kinase still bound, per cent of control",TAOK3 (human),2%
same,"kinase still bound, per cent of control",CSF1R (human),16%
same,"kinase still bound, per cent of control",PIK3CD (human),33%
same,"kinase still bound, per cent of control",DCLK1 (human),0.65%
same,"kinase still bound, per cent of control",ULK2 (human),0.5%
same,"kinase still bound, per cent of control",PRKD1 (human),3.8%
same,"kinase still bound, per cent of control",PHKG2 (human),29%
same,"kinase still bound, per cent of control",FER (human),32%
same,"kinase still bound, per cent of control",ULK1 (human),2.9%
same,"kinase still bound, per cent of control",DCLK2 (human),0.45%
same,"kinase still bound, per cent of control",DCLK3 (human),16%
same,"kinase still bound, per cent of control",PLK4 (human),6.8%
same,"kinase still bound, per cent of control",RPS6KA6 KD2 (human),4.9%
same,"kinase still bound, per cent of control",CAMKK2 (human),15%
same,"kinase still bound, per cent of control",NUAK1 (human),7.6%
same,"kinase still bound, per cent of control",PRKD3 (human),5.4%
same,"kinase still bound, per cent of control",TNK2 (human),3.2%
N=C1NC(=O)/C(=C/c2ccc(-c3ccc(F)cc3)o2)S1,"kinase still bound, per cent of control",IKBKB (human),29%
same,"kinase still bound, per cent of control",DAPK2 (human),5.1%
same,"kinase still bound, per cent of control",CDK7 (human),15%
same,"kinase still bound, per cent of control",TAOK1 (human),0.3%
same,"kinase still bound, per cent of control",HIPK1 (human),0.2%
same,"kinase still bound, per cent of control",CLK2 (human),16%
same,"kinase still bound, per cent of control",STK17B (human),2.2%
same,"kinase still bound, per cent of control",STK17A (human),0.45%
same,"kinase still bound, per cent of control",PIM2 (human) [3],1.2%
same,"kinase still bound, per cent of control",CLK1 (human),26%
same,"kinase still bound, per cent of control",CLK4 (human),28%
same,"kinase still bound, per cent of control",CDK16 (human),9.4%
same,"kinase still bound, per cent of control",TAOK3 (human),6.6%
same,"kinase still bound, per cent of control",PIM1 (human) [4],3.4%
same,"kinase still bound, per cent of control",CHUK (human),27%
same,"kinase still bound, per cent of control",GSK3B (human),30%
same,"kinase still bound, per cent of control",PIM3 (human),3.7%
same,"kinase still bound, per cent of control",MAP2K3 (human),5.8%
same,"kinase still bound, per cent of control",TGFBR2 (human),7.8%
same,"kinase still bound, per cent of control",DYRK1B (human),33%
same,"kinase still bound, per cent of control",PLK4 (human),21%
same,"kinase still bound, per cent of control",MAPK15 (human),0.95%
same,"kinase still bound, per cent of control",DAPK3 (human),14%
same,"kinase still bound, per cent of control",GSK3A (human),4.3%
same,"kinase still bound, per cent of control",[5],34%
same,"kinase still bound, per cent of control",DAPK1 (human),15%
same,IC50,PIM2 (human) [6],590 nM
same,IC50,PIM1 (human) [7],1750 nM
